The test system of experiment [1] is Thermus thermophilus (DSM: 579). As to the kind of experiment: Synergy in the planktonic phase, 48 h biocide challenge at 60° C. with dilution-series regrowth readout. The experiment is classed as cell-based. As to the method:
Experiments using Thermus thermophdus (DSM: 579) as a test organism were also performed. In these experiments, the total concentration of biocides was 300 ppm for the combined total actives, the temperature at which the experiments were performed was 60° C., the media to grow Thermus thermophdus was DSMZ DSM 74-Media at pH 8.0. (Yeast extract (BD Difco) 4.0 g, Proteose peptone Nr. 3 (BD Difco) 8.0 g, NaCl 2.0 g, distilled water added to 1 L). The challenging with biocides against Thermus thermophilus was done in a standard ocean matrix with a similar salinity of 2% (similar to the media where they are cultured in). Once again, each experiment was done in triplicate.
The inoculated assay block was challenged at 60° C. for 48 hours. The inoculum prepared added between to 1*10^8 to 1*10^9 total cells/mL (determined by MPN analysis). After 48 hours of challenge with biocide, 20 μL aliquots of each treatment (well) were added to one of several 96 well plates with DSM 74-media. These 96 well plates were filled with ‘recovery’ media (DSM 74-Media). One of these plates was prepared for each column of the assay block. 180 μL recovery media was added to each well of a 96 well plate, except for column 1 of the recovery plate. This column was filled with 180 μL of one column of the assay block. The last three columns on the recovery plate were not pipetted. These columns represented the no template control for verifying proper plate set up and data reliability. The assay block sample was then diluted in steps of 10 fold by transferring 20 μL from e.g. columns 1 to column 2 and from column 2 to column 3 (until column 9) by applying a multichannel pipet in each recovery plate. […]
The recovery plates were allowed to regrow for 4-6 days and subsequently read (checked for microbial growth). This was done in duplicate for each point (the duplicate is already present in the biocide block viz. each point is truly determined in duplicate). […] Turbidity was checked in log scale reading the recovery plates. Turbidity was recorded via presence/absence and gave the log kill range (from the made dilution series). […]

Experiment [2] deals with Pseudomonas aeruginosa (ATCC […]) and Escherichia coli (ATCC 10145) combined inoculum. As to the kind of experiment: Synergy in the planktonic phase, 48 h biocide challenge with regrowth (turbidity) readout. The experiment is classed as cell-based. The following applies: P. aeruginosa/E. coli, 48 h challenge at 30° C., phosphate buffer pH 7.3. As to the method: Pseudomonas aeruginosa (ATCC […]) and Escherichia coli (ATCC 10145) cultures were separately prepared from glycerol stocks. First they were streak plated and validated with a microscope. Single colonies were picked and used to inoculate 200 mL shake flasks that were grown statically overnight at 30° C. (30 grams/L Tryptic Soy Broth) to produce the initial inoculum. A deep-well 96 well challenge plate (2 mL maximum well volume) was prepared using 900 μL/well phosphate buffer at pH 7.3, (0.0027M potassium chloride, 0.137 M sodium chloride). Inoculation took place at the start of the experiments (with a 100 μL combined inoculum, adding to the 900 μL buffer to total 1 mL/well). The inoculum added between 1*10^8 and 1*10^9 total cells/mL based on OD600 measurement. […]
The inoculated assay block was challenged at 30° C. for 48 hours. […] This was done in triplicate for each point (the triplicate is already present in the biocide block viz. each point is truly determined in triplicate). […]
The recovery plates were subsequently read (checked for microbial growth) at 72 hours after addition of the culture, to recovery media. Ranking of biocidal efficacy was done by recording the development of turbidity within each well (determined by visual inspection). […] Ranking was done per average value of three data points determined per experiment. (Recorded in log regrowth). […]

Take `O=CC=O` [Glyoxal, glyoxal]: the “Glyoxal stand alone 48 h pass” value in experiment [1] (T. thermophilus, glyoxal alone, 48 h challenge at 60° C., ocean matrix 2% salinity) is reported as 59 ppm; in experiment [2] (glyoxal alone), 875 ppm. The “Sensitivity of Thermus thermophilus to Glyoxal” value in experiment [1] (vs. Pseudomonas aeruginosa and E. coli) is “*Thermus thermophilus is more sensitive to Glyoxal vs. Pseudomonas aeruginosa and E. coli”.
Turning to “tetrakis(hydroxymethyl)phosphonium sulfate [THPS]”, the “THPS stand alone 48 h pass” value in experiment [1] (T. thermophilus, THPS alone, 48 h challenge at 60° C., ocean matrix 2% salinity) was 300 ppm; in experiment [2] (THPS alone), 130 ppm.
